Results as given in patent US20170189376A1, “BUTYROYLOXYMETHYL DIETHYL PHOSPHATE COMPOUNDS AND USES THEREOF” (MOR RESEARCH APPLICATIONS LTD., priority 2016, published 2017).
Where two headings read alike, the source gives them in different places.

What was measured:
HDAC1 = assay: Western blot of HDAC1 protein expression in MF/SS cell lines; assay type: cell-based, human; details: MyLa and Hut78, SAHA 10 μM or AN-7 300 μM
[1] = system: NBS1, Rad51, Mre11, DNA-PK, Ku70 in MyLa cells; assay: Western blot of DSB repair proteins, MyLa cells; assay type: cell-based, human; details: 24 and 48 h post treatment
Experimental: (§1) Whole cells extract—Cells were suspended in lysis buffer (Tris-HCl 50 mM, NaCl 150 mM, NP-40 0.5%), incubated for lh on ice, centrifuged and the supernatant was collected. Protease and Phosphatase inhibitors were added to all buffers at a 1:100 dilutions. […] Bands were visualized by Odyssey Infrared Imaging System and the bands intense were normalized to actin.
(§2) To address whether AN-7 interfere in DSBs repair by regulating the expression of DSBs repair proteins, Immunoblot was applied for those proteins. MyLa and Hut78 cells were treated as previously described and subjected to western blot of DSBs repair proteins.

Hut78 cells [2] = assay type: cell-based, homo sapiens; details: trypan blue; for IC50: column group printed 'SAHA'
Acetylated H3 = assay: Western blot of acetylated H3 in nuclear lysate of MF/SS cell lines; details: MyLa and Hut78, SAHA 10 μM or AN-7 300 μM
Experimental: Cells (5×10^6) were suspended in 300 μL of cytoplasmic buffer (HEPES 10 mM, KCl 10 mM, EDTA 1 mM, EGTA 1 mM, DTT 1 mM). After 20 min of incubation on ice, the mixture was passed 5 times through a 25-G syringe and then centrifuged briefly to obtain the cytoplasmic supernatant.
The nuclear pellet was suspended in 40-60 μL of nuclear buffer (cytoplasmic buffer+10% glycerol), incubated with shaking at 4° C. for 15 min, and centrifuged. The supernatant was collected as a nuclear fraction.
Cell extracts were separated by SDS-polyacrylamide gel electrophoresis (SDS-PAGE), transferred to a nitrocellulose membrane, and subjected to immunoblot with primary and secondary antibodies, as listed in table 1.

[3] = system: p-KAP1, γH2AX in MyLa cells; assay: Western blot of p-KAP1 and γH2AX, MyLa cells; assay type: cell-based, human; details: 1 mM AN-7 2 h, 1 μM Dox 1 h, or AN-7 1 h followed with Dox 1 h
Experimental: (§3) Cell fraction—3×10^6cells were suspended in 100 μl hypotonic buffer (HEPES 10 mM, KCl 5 mM, MgCl2 1.5 mM, DTT 1 mM, NP-40 1%), incubated for 15 min in ice, centrifuged and the supernatant fraction was subjected to western blot of pKAP1 and actin. The sediment was washed once with hypotonic buffer followed by suspension in 100 μl of hypertonic buffer (HEPES 10 mM, NaCl 500 mM, MgCl2 1.5 mM, DTT 1 mM, NP-40 1%), incubated for 15 min in ice, centrifuged, supernatant was removed and the sediment was boiled, vortexed for 10 min at 95° C. with sample buffer ×3 for 3 times and subjected to western blot of γH2AX.
as §1
(§4) Next, cells were fractionated and fraction lysate were subjected to western blot of phosphorylated KAP1 (p-KAP1), γH2AX and actin.

U2OS GFP-reporter cells = assay: HR activity assay, U2OS GFP-reporter cells; assay type: cell-based; details: 1 mM AN-7 for 48 h
Experimental: U2OS cells with the linearized HRsub reporter (Puget et al. DNA Repair 4 (2005) 149-161) were transfected with: SceI-expression vector pCBASce; pCBA vector without Sce-I; and GFP control vector, each one separately with FuGENE 6 transfection reagent (Promega). 24 h later 2×10̂5 cells/ml were seeded in 35 mm plates and 6 h later were treated with 1 mM AN-7 for 48 hr. Cells were washed with PBS then harvested with Trypsin solution, neutralized with PBS+10% FBS, centrifuged in 1200 rpm for 10 min, suspended with PBS+10% FBS and GFP-positive cells were quantified by flow cytometry analysis. Cells excitation was done with 488nm laser; the reading of FL1 values was done in 530 nm. Percent of cells with repaired DSB induced by Sce-I via HR are presented as percent of GFP positive cells which are calculated as follow: (%GFP of cells expressing Sce-I pCBASce)−(%GFP of cells expressing empty pCBASce)/(%GFP of cells expressing GFP control vector).
The role of AN-7 in suppressing directly the repair of DSBs, was verified. To this end, one of the machinery for repairing DSBs, the HR repair machinery, was tested. […] The U2OS-GFP cells were transfected with I-SceI plasmid for 24 hours, treated then with AN-7 for another 48 h and then analyzed for GFP expression in FACS analysis. […]

MyLa cells [4] = assay: FACS analysis with annexin V and PI staining (apoptosis), MyLa cells
Experimental: (§5) The cells (2.5×10^6 cells/mL) were washed in PBS and binding buffer and were resuspended in binding buffer, and of fluorescein isothiocyanate-conjugated annexin V (5 μL) was added to a 100 μL cell suspension for 10-15 min. Incubation was performed at room temperature under light-protected conditions. The cells were then washed in binding buffer and were resuspended in the binding buffer and propidium iodide (PI) (5 μL) was added. The samples were analyzed by flow cytometry (FACS Calibur 4.1.6, Becton Dickinson): fluorescein-labeled annexin V at a 530 nm wavelength, and PI at a 585 nm wavelength. The percentage of cells was calculated by their distribution in a fluorescence dot plot generated with FCS Express 4 software (De Novo Software, Los Angeles, Calif., USA). Early (annexin V-positive) and late (annexin V+PI-positive) apoptotic cells were summed to yield the total number of apoptotic cells.

MyLa cells [5] = assay: MTT-based viability assay, MyLa cells
Experimental: (§6) MyLa cells (10^4), Hut78 cells (5×10^3), SPBL and NPBL (10^5) were seeded in triplicate in 96-well plates. The PBL were activated with PHA 40 μg/10^6 cell for 24 h before the experiment. […] The cells were then placed in a humidified incubator for 72 h. […] The MTT reagent was added to a final concentration of 0.5 mg/mL, and the cells were incubated for an additional 4 h. Thereafter, 0.1N HCl in isopropanol was added, and cell viability was determined using an ELISA reader (PowerWaveX, BioTek, Winooski, Vt., USA) at a 570 nm wavelength with background subtraction at 630-690 nM.
(§7) Viability and apoptosis curves were based on the averages of at least 3 independent experiments. The standard error (SE) was calculated for each group as follows: SE=standard deviation/√n, where n is number of values in the group. […] Significant differences in selectivity among groups were analyzed by comparing the IC50 values using two-tailed unpaired t-test using Excel or by comparing the differential effects for all the dose response titrations using ANOVA with repeated measures.

MyLa cells [6] = assay: cells; assay type: cell-based, human; details: trypan blue, column group printed 'AN-7', MyLa
[7] = system: p-KAP1, γH2AX in Hut78 cells; assay: Western blot of p-KAP1 and γH2AX, Hut78 cells; assay type: cell-based, homo sapiens; details: 0.5 mM AN-7 2 h, 0.5 μM Dox 1 h, or AN-7 1 h followed with Dox 1 h
Experimental: as §3, §1, §4

[8] = system: Sezary syndrome Peripheral blood lymphocytes SPBL; assay: MTT-based viability assay, Sezary PBL (SPBL); details: for IC50: Sezary PBL
Experimental: (§8) Peripheral blood was diluted 1:3 in sterile phosphate-buffered saline (PBS). Lymphoprep was added in the same blood volume with a Pasteur pipette, and the sample was centrifuged. PBL were collected from the white median interphase, rinsed twice with PBS, and suspended in RPMI medium with 10 mM HEPES to 2×10^6 cells/mL.
as §6, §7
(§9) NPBL were treated at same molar ratio as SPBL.

[9] = system: NBS1, Rad51, Mre11, DNA-PK, Ku70 in Hut78 cells; assay: Western blot of DSB repair proteins, Hut78 cells; assay type: cell-based, homo sapiens; details: Hut78, 18 and 24 h post treatment
Experimental: as §1, §2

SPBL = assay: FACS annexin V/PI apoptosis ex vivo, PBL of SS patients; assay type: cell-based, human; details: PBL from 2 SS patients, SAHA 4 μM or AN-7 200 μM, 48 h
Source text: The cells were then stained with annexin V and PI and analysed by FACS.

Hut78 cells [10] = assay: MTT-based viability assay, Hut78 cells
Experimental: as §6, §7

Hut78 cells [11] = assay: FACS analysis with annexin V and PI staining (apoptosis), Hut78 cells
Experimental: as §5

[12] = system: caspase 3, PARP, P21 and Bax in MF/SS cell lines; assay: Western blot of pro-apoptotic proteins in MF/SS cell lines; assay type: cell-based, human; details: MyLa and Hut78, SAHA 10 μM or AN-7 300 μM
Source text: However, there was a stronger signal in response to SAHA.

NPBL = assay: MTT-based viability assay, normal PBL (NPBL); details: for IC50: Normal PBL
Experimental: as §8, §6, §7, §9

[13] = long exposure 24 h, read-out: IC50 Long exposure
[14] = read-out: IC50 single treatment (HDACI), MTT 72 h, Table 4

What does the source list for CCCC(=O)OCOP(=O)(OCC)OCC [AN-7, Butyroyloxymethyl diethyl phosphate]?
HDAC1 expression level (HDAC1): downregulated; expression of NBS1, Mre11, Rad51 and DNA-PK [1]: did not affect the expression of DSB repair proteins; IC50 short exposure/IC50 long exposure (Hut78 cells [2]): 1.3; IC50 (Hut78 cells [2]; 4 h then washout and 20 h, read-out: IC50 Short exposure): 88 ± 4.6 µM; IC50 (Hut78 cells [2]; [13]): 67 ± 2.5 µM; expression of acetylated H3 (Acetylated H3): induced; induction and clearance of p-KAP1 [3]: did not affect the expression of p-KAP1 and γH2AX; induction and clearance of γH2AX [3]: did not affect the expression of p-KAP1 and γH2AX; proportion of cells expressing GFP (frequency of HR repair of I-SceI-induced DSBs) (U2OS GFP-reporter cells): significantly reduce; apoptosis (MyLa cells [4]; SAHA 10 μM or AN-7 300 μM): about 60%; apoptosis after short exposure compared to long exposure (fold less) (MyLa cells [4]; annexin V + PI): no significant difference; IC50 (MyLa cells [5]; MyLa cells, MTT, 72 h): 120 ± 5.3 µM; selectivity vs NPBL by dose-response titration (MyLa cells [5]; MyLa vs NPBL, ANOVA with repeated measures): significantly selective; Selectivity index (SI) (MyLa cells [5]; SI=IC50 NPBL/IC50 MyLa): 1.7; IC50 (MyLa cells [5]; read-out: IC50 single treatment (HDACI), MyLa, MTT 72 h, Table 4): 81.7 ± 4.4 µM; IC50 (MyLa cells [6]; 4 h then washout and 44 h, read-out: IC50 Short exposure): 141 ± 9.8 µM; IC50 (MyLa cells [6]; [13]): 159 ± 34.8 µM; induction and persistence of p-KAP1 and γH2AX [7]: did not affect the expression of p-KAP1 and γH2AX; Selectivity index (SI) ([8]; SI=IC50 NPBL/IC50 Sezary PBL): 3.56; selectivity of induced death vs NPBL ([8]; SPBL vs NPBL, by IC50 values): selective death; IC50 ([8]; MTT, 72 h): 128 µM; lethality of high doses to SPBL ([8]; high doses, MTT 72 h): more lethal to SPBL than high doses of SAHA; IC50 [8, 14]: 128 ± 5.2 µM; expression of NBS1 and DNA-PK [9]: did not affect the expression of DSB repair proteins; apoptosis induction in SPBL ex vivo (SPBL): directed more SPBL cells into apoptotic death than SAHA; IC50 (Hut78 cells [10]; Hut78 cells, MTT, 72 h): 59 ± 4.3 µM; selectivity vs NPBL by dose-response titration (Hut78 cells [10]; Hut78 vs NPBL, ANOVA with repeated measures): significantly selective; Selectivity index (SI) (Hut78 cells [10]; SI=IC50 NPBL/IC50 Hut78): 3.4; IC50 (Hut78 cells [10]; read-out: IC50 single treatment (HDACI), Hut78, MTT 72 h, Table 4): 59 ± 4.3 µM; apoptosis after short exposure compared to long exposure (fold less) (Hut78 cells [11]; Hut78, annexin V + PI): no significant difference; apoptosis (Hut78 cells [11]; Hut78, SAHA 10 μM or AN-7 300 μM): about 60%; expression of pro-apoptotic proteins (western blot) [12]: cleavage of caspase 3 and poly ADP-ribose polymerase (PARP) and the production of P21 and Bax; IC50 (NPBL; MTT, 72 h): 200 ± 2.8 µM; NPBL survival at high doses (NPBL; high doses lethal to Hut78 and MyLa cells): 50%; IC50 (NPBL; [14]): 191 ± 26.1 µM
